# ChEMBL document CHEMBL1201862, “PubChem BioAssay data set” (2004)
#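 Results reflect a 48-hour exposure of cells in 96-well plates to compound at five concentrations. GI50: concentration for 50% inhibition of growth.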 The source made the active and inactive calls. Cut-off read from the data, not from the text of the source: active = GI50 up to about 1.1 µM and inactive = higher.
# How the values were obtained:
# Assay in all cases: NCI anticancer screen, dose series, 48 h
# MDA-MB-435 = tested on: MDA-MB-435
# HCC 2998 = tested on: HCC 2998
# Hs-578T = tested on: Hs-578T
# SK-MEL-5 = tested on: SK-MEL-5
# IGROV-1 = tested on: IGROV-1
# NCI-H460 = tested on: NCI-H460
# NCI-H226 = tested on: NCI-H226
# CAKI-1 = tested on: CAKI-1
# SR = tested on: SR
# HT-29 = tested on: HT-29
# U-251 = tested on: U-251
# M14 = tested on: M14
# HOP-62 = tested on: HOP-62
# RPMI-8226 = tested on: RPMI-8226
# UACC-62 = tested on: UACC-62
# A549 = tested on: A549
# DU-145 = tested on: DU-145
# SN12C = tested on: SN12C
# SF-295 = tested on: SF-295
# OVCAR-4 = tested on: OVCAR-4
# MDA-MB-231 = tested on: MDA-MB-231
# BT-549 = tested on: BT-549
# EKVX = tested on: EKVX
# UACC-257 = tested on: UACC-257
# SNB-19 = tested on: SNB-19
# SK-MEL-28 = tested on: SK-MEL-28
# HL-60 = tested on: HL-60
# SNB-75 = tested on: SNB-75
# MOLT-4 = tested on: MOLT-4
# KM12 = tested on: KM12
# A498 = tested on: A498
# SK-OV-3 = tested on: SK-OV-3
# COLO 205 = tested on: COLO 205
# 786-0 = tested on: 786-0
# HOP-92 = tested on: HOP-92
# UO-31 = tested on: UO-31
# SW-620 = tested on: SW-620
# MDA-N = tested on: MDA-N
# Malme-3M = tested on: Malme-3M
# HCT-116 = tested on: HCT-116
# ACHN = tested on: ACHN
# T47D = tested on: T47D
# SF-268 = tested on: SF-268
# HCT-15 = tested on: HCT-15
# LOX IMVI = tested on: LOX IMVI
# OVCAR-8 = tested on: OVCAR-8
# PC-3 = tested on: PC-3
# CCRF-CEM = tested on: CCRF-CEM
# SK-MEL-2 = tested on: SK-MEL-2
# TK-10 = tested on: TK-10
# RXF 393 = tested on: RXF 393
# NCI-H522 = tested on: NCI-H522
# NCI/ADR-RES = tested on: NCI/ADR-RES
# SF-539 = tested on: SF-539
# K562 = tested on: K562
# NCI-H23 = tested on: NCI-H23
# OVCAR-5 = tested on: OVCAR-5
# OVCAR-3 = tested on: OVCAR-3
# MCF7 = tested on: MCF7
smiles,measurement,setting,value
CNC(=S)N/N=C/c1ccc([N+](=O)[O-])s1,GI50,MDA-MB-435,> 10 µM (inactive)
same,GI50,HCC 2998,8.15 µM (inactive)
same,GI50,Hs-578T,> 10 µM (inactive)
same,GI50,SK-MEL-5,> 10 µM (inactive)
same,GI50,IGROV-1,> 10 µM (inactive)
same,GI50,NCI-H460,6.67 µM (inactive)
same,GI50,NCI-H226,> 10 µM (inactive)
same,GI50,CAKI-1,> 10 µM (inactive)
same,GI50,SR,4.81 µM (inactive)
same,GI50,HT-29,3.13 µM (inactive)
same,GI50,U-251,> 10 µM (inactive)
same,GI50,M14,> 10 µM (inactive)
same,GI50,HOP-62,> 10 µM (inactive)
same,GI50,RPMI-8226,> 10 µM (inactive)
same,GI50,UACC-62,> 10 µM (inactive)
same,GI50,A549,7.38 µM (inactive)
same,GI50,DU-145,> 10 µM (inactive)
same,GI50,SN12C,> 10 µM (inactive)
same,GI50,SF-295,> 10 µM (inactive)
same,GI50,OVCAR-4,> 10 µM (inactive)
same,GI50,MDA-MB-231,> 10 µM (inactive)
same,GI50,BT-549,> 10 µM (inactive)
same,GI50,EKVX,> 10 µM (inactive)
same,GI50,UACC-257,> 10 µM (inactive)
same,GI50,SNB-19,> 10 µM (inactive)
same,GI50,SK-MEL-28,> 10 µM (inactive)
same,GI50,HL-60,6.44 µM (inactive)
same,GI50,SNB-75,> 10 µM (inactive)
same,GI50,MOLT-4,> 10 µM (inactive)
same,GI50,KM12,3.99 µM (inactive)
same,GI50,A498,> 10 µM (inactive)
same,GI50,SK-OV-3,> 10 µM (inactive)
same,GI50,COLO 205,1.81 µM (inactive)
same,GI50,786-0,> 10 µM (inactive)
same,GI50,HOP-92,> 10 µM (inactive)
same,GI50,UO-31,> 10 µM (inactive)
same,GI50,SW-620,> 10 µM (inactive)
same,GI50,MDA-N,> 10 µM (inactive)
same,GI50,Malme-3M,7.53 µM (inactive)
same,GI50,HCT-116,5.48 µM (inactive)
same,GI50,ACHN,> 10 µM (inactive)
same,GI50,T47D,> 10 µM (inactive)
same,GI50,SF-268,> 10 µM (inactive)
same,GI50,HCT-15,> 10 µM
same,GI50,LOX IMVI,> 10 µM (inactive)
same,GI50,OVCAR-8,7.26 µM (inactive)
same,GI50,PC-3,3.01 µM (inactive)
same,GI50,CCRF-CEM,> 10 µM (inactive)
same,GI50,SK-MEL-2,> 10 µM (inactive)
same,GI50,TK-10,> 10 µM (inactive)
same,GI50,RXF 393,> 10 µM (inactive)
same,GI50,NCI-H522,> 10 µM (inactive)
same,GI50,NCI/ADR-RES,> 10 µM (inactive)
same,GI50,SF-539,> 10 µM (inactive)
same,GI50,K562,> 10 µM (inactive)
same,GI50,NCI-H23,> 10 µM (inactive)
same,GI50,OVCAR-5,> 10 µM (inactive)
same,GI50,OVCAR-3,2.23 µM (inactive)
O=c1[nH]c2cc(F)c(F)cc2nc1Cc1ccccc1,GI50,MDA-MB-435,> 100 µM (inactive)
same,GI50,HCC 2998,> 100 µM (inactive)
same,GI50,Hs-578T,> 100 µM (inactive)
same,GI50,SK-MEL-5,> 100 µM (inactive)
same,GI50,IGROV-1,> 100 µM (inactive)
same,GI50,NCI-H460,> 100 µM (inactive)
same,GI50,NCI-H226,> 100 µM (inactive)
same,GI50,CAKI-1,> 100 µM (inactive)
same,GI50,SR,> 100 µM (inactive)
same,GI50,HT-29,> 100 µM (inactive)
same,GI50,U-251,> 100 µM (inactive)
same,GI50,M14,> 100 µM (inactive)
same,GI50,HOP-62,> 100 µM (inactive)
same,GI50,UACC-62,> 100 µM (inactive)
same,GI50,DU-145,> 100 µM (inactive)
same,GI50,SF-295,> 100 µM (inactive)
same,GI50,OVCAR-4,> 100 µM (inactive)
same,GI50,MDA-MB-231,> 100 µM (inactive)
same,GI50,BT-549,> 100 µM (inactive)
same,GI50,EKVX,> 100 µM (inactive)
same,GI50,UACC-257,> 100 µM (inactive)
same,GI50,SNB-19,> 100 µM (inactive)
same,GI50,SK-MEL-28,> 100 µM (inactive)
same,GI50,HL-60,> 100 µM (inactive)
same,GI50,SNB-75,> 100 µM (inactive)
same,GI50,MOLT-4,16.1 µM (inactive)
same,GI50,KM12,> 100 µM (inactive)
same,GI50,A498,> 100 µM (inactive)
same,GI50,SK-OV-3,> 100 µM (inactive)
same,GI50,COLO 205,> 100 µM (inactive)
same,GI50,786-0,> 100 µM (inactive)
same,GI50,HOP-92,> 100 µM (inactive)
same,GI50,UO-31,> 100 µM (inactive)
same,GI50,SW-620,> 100 µM (inactive)
same,GI50,HCT-116,> 100 µM (inactive)
same,GI50,ACHN,> 100 µM (inactive)
same,GI50,T47D,> 100 µM (inactive)
same,GI50,SF-268,> 100 µM (inactive)
same,GI50,HCT-15,> 100 µM
same,GI50,LOX IMVI,> 100 µM (inactive)
same,GI50,OVCAR-8,> 100 µM (inactive)
same,GI50,PC-3,> 100 µM (inactive)
same,GI50,CCRF-CEM,> 100 µM (inactive)
same,GI50,SK-MEL-2,> 100 µM (inactive)
same,GI50,TK-10,> 100 µM (inactive)
same,GI50,RXF 393,> 100 µM (inactive)
same,GI50,NCI/ADR-RES,> 100 µM (inactive)
same,GI50,SF-539,> 100 µM (inactive)
same,GI50,K562,30 µM (inactive)
same,GI50,NCI-H23,> 100 µM (inactive)
same,GI50,MCF7,> 100 µM (inactive)
O/N=N/c1ccc([SH2]c2ccc3ccccc3c2)cn1,GI50,HCC 2998,13.4 µM (inactive)
same,GI50,Hs-578T,43 µM (inactive)
same,GI50,SK-MEL-5,16.3 µM (inactive)
same,GI50,IGROV-1,32.7 µM (inactive)
same,GI50,NCI-H460,15.4 µM (inactive)
same,GI50,NCI-H226,31.6 µM (inactive)
same,GI50,CAKI-1,17.7 µM (inactive)
same,GI50,SR,21.8 µM (inactive)
same,GI50,HT-29,34 µM (inactive)
same,GI50,U-251,19.3 µM (inactive)
same,GI50,M14,19.3 µM (inactive)
same,GI50,HOP-62,15.1 µM (inactive)
same,GI50,UACC-62,27.6 µM (inactive)
same,GI50,A549,33 µM (inactive)
same,GI50,DU-145,17.1 µM (inactive)
same,GI50,SN12C,20.5 µM (inactive)
same,GI50,SF-295,25.8 µM (inactive)
same,GI50,OVCAR-4,> 100 µM (inactive)
same,GI50,MDA-MB-231,30.1 µM (inactive)
same,GI50,BT-549,23 µM (inactive)
same,GI50,EKVX,23.6 µM (inactive)
same,GI50,UACC-257,36.1 µM (inactive)
same,GI50,SNB-19,40.2 µM (inactive)
same,GI50,SK-MEL-28,32.7 µM (inactive)
same,GI50,HL-60,3.97 µM (inactive)
same,GI50,SNB-75,20.2 µM (inactive)
same,GI50,MOLT-4,1.62 µM (inactive)
same,GI50,KM12,41.4 µM (inactive)
same,GI50,A498,57.9 µM (inactive)
same,GI50,SK-OV-3,43.9 µM (inactive)
same,GI50,COLO 205,20.2 µM (inactive)
same,GI50,786-0,31.3 µM (inactive)
same,GI50,UO-31,24.6 µM (inactive)
same,GI50,SW-620,28.3 µM (inactive)
same,GI50,MDA-N,31.4 µM (inactive)
same,GI50,Malme-3M,0.955 µM (active)
same,GI50,HCT-116,15 µM (inactive)
same,GI50,ACHN,18.6 µM (inactive)
same,GI50,T47D,20.6 µM (inactive)
same,GI50,SF-268,22.3 µM (inactive)
same,GI50,HCT-15,17.1 µM
same,GI50,OVCAR-8,19.1 µM (inactive)
same,GI50,PC-3,8.85 µM (inactive)
same,GI50,CCRF-CEM,3.04 µM (inactive)
same,GI50,SK-MEL-2,15.4 µM (inactive)
same,GI50,TK-10,28.6 µM (inactive)
same,GI50,RXF 393,< 0.01 µM (active)
same,GI50,NCI-H522,17.5 µM (inactive)
same,GI50,NCI/ADR-RES,19.1 µM (inactive)
same,GI50,SF-539,41.9 µM (inactive)
same,GI50,K562,16.8 µM (inactive)
same,GI50,NCI-H23,12.2 µM (inactive)
same,GI50,OVCAR-5,32.7 µM (inactive)
same,GI50,OVCAR-3,43.8 µM (inactive)
same,GI50,MCF7,17.9 µM (inactive)
